In PubChem BioAssay AID192 (DTP/NCI, 2004):
“And” between values parts separate entries of the source, which are not always exact repeats. Equal values may be shown once. Inconclusive results and toxic doses are left out. How the source made its calls: active means survival T/C of 150% or more; inactive means T/C below 125% in these data.

Test system: BDF1 mice, B16 melanoma ip, median survival T/C
Assay: NCI In Vivo Anticancer Drug Screen. Data for tumor model B16 Melanoma (intraperitoneal) in B6D2F1 (BDF1) mice
Conditions: endpoint: median survival time, higher = longer survival
Outline: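 Compounds were tested in mice carrying transplantable tumors. Survival or tumor size was recorded, and each value is the treated-group measurement (T) divided by that of the vehicle-treated control group (C).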

[1] = dose: 25.0 mg/kg/injection, schedule: Q01DX009 (ip), vehicle: saline
[2] = dose: 50.0 mg/kg/injection, schedule: Q01DX009 (ip), vehicle: saline

Measured: T/C

CCC1(O)CC2CN(CCc3c([nH]c4ccccc34)C(C(=O)OC)(c3cc4c(cc3OC)N(C)C3C(O)(C(N)=O)C(O)C5(CC)C=CCN6CCC43C65)C2)C1 (stereo not given) (tested in a mixture with another compound)
109 % of control and 236 % of control: dose: 0.5 mg/kg/injection, schedule: Q04DX003 (ip), vehicle: saline
active: dose: 0.13 mg/kg/injection, schedule: Q01DX009 (ip), vehicle: water 162 % of control | dose: 0.18 mg/kg/injection, schedule: Q04DX003 (ip), vehicle: saline 159 % of control | dose: 0.22 mg/kg/injection, schedule: Q01DX009 (ip), vehicle: water 183 % of control | dose: 0.3 mg/kg/injection, schedule: Q04DX003 (ip), vehicle: saline 177 % of control | dose: 0.36 mg/kg/injection, schedule: Q01DX009 (ip), vehicle: water 151 % of control and 184 % of control | dose: 0.39 mg/kg/injection, schedule: Q04DX003 (ip), vehicle: saline 176 % of control | dose: 0.52 mg/kg/injection, schedule: Q04DX003 (ip), vehicle: water 183 % of control | dose: 0.6 mg/kg/injection, schedule: Q01DX009 (ip), vehicle: water 241 % of control | dose: 0.65 mg/kg/injection, schedule: Q04DX003 (ip), vehicle: saline 172 % of control | dose: 0.86 mg/kg/injection, schedule: Q04DX003 (ip), vehicle: water 166 % of control and 202 % of control | dose: 1.0 mg/kg/injection, schedule: Q04DX003 (ip), vehicle: saline 168 % of control | dose: 1.08 mg/kg/injection, schedule: Q04DX003 (ip), vehicle: saline 206 % of control | dose: 1.44 mg/kg/injection, schedule: Q04DX003 (ip), vehicle: water 151 % of control and 275 % of control | dose: 1.73 mg/kg/injection, schedule: Q01DX001 (ip), vehicle: water 165 % of control | dose: 1.8 mg/kg/injection, schedule: Q04DX003 (ip), vehicle: saline 241 % of control | dose: 2.0 mg/kg/injection, schedule: Q04DX003 (ip), vehicle: saline 180 % of control | dose: 2.9 mg/kg/injection, schedule: Q01DX001 (ip), vehicle: water 166 % of control | dose: 4.0 mg/kg/injection, schedule: Q04DX003 (ip), vehicle: saline 181 % of control | dose: 4.8 mg/kg/injection, schedule: Q01DX001 (ip), vehicle: water 152 % of control and 194 % of control | dose: 8.0 mg/kg/injection, schedule: Q01DX001 (ip), vehicle: water 211 % of control | dose: 60.0 micrograms/kg/injection, schedule: Q01DX009 (ip), vehicle: saline 151 % of control | dose: 100.0 micrograms/kg/injection, schedule: Q01DX009 (ip), vehicle: saline 152 % of control | dose: 170.0 micrograms/kg/injection, schedule: Q01DX009 (ip), vehicle: saline 226 % of control | dose: 216.0 micrograms/kg/injection, schedule: Q01DX009 (ip), vehicle: saline 173 % of control | dose: 216.0 micrograms/kg/injection, schedule: Q01DX009 (ip), vehicle: water 150 % of control and 165 % of control | dose: 360.0 micrograms/kg/injection, schedule: Q01DX009 (ip), vehicle: saline 183 % of control | dose: 360.0 micrograms/kg/injection, schedule: Q01DX009 (ip), vehicle: water 155 % of control | dose: 389.0 micrograms/kg/injection, schedule: Q04DX003 (ip), vehicle: saline 187 % of control and 207 % of control | dose: 600.0 micrograms/kg/injection, schedule: Q01DX009 (ip), vehicle: saline 191 % of control | dose: 600.0 micrograms/kg/injection, schedule: Q01DX009 (ip), vehicle: water 155 % of control and 175 % of control | dose: 648.0 micrograms/kg/injection, schedule: Q04DX003 (ip), vehicle: saline 179 % of control and 258 % of control | dose: 1080.0 micrograms/kg/injection, schedule: Q04DX003 (ip), vehicle: saline 161 % of control and 214 % of control and 225 % of control | dose: 1800.0 micrograms/kg/injection, schedule: Q04DX003 (ip), vehicle: saline 195 % of control and 248 % of control and 303 % of control | dose: 3000.0 micrograms/kg/injection, schedule: Q04DX003 (ip), vehicle: saline 152 % of control and 243 % of control and 308 % of control
inactive: dose: 0.12 mg/kg/injection, schedule: Q04DX003 (ip), vehicle: water 115 % of control | dose: 0.25 mg/kg/injection, schedule: Q04DX003 (ip), vehicle: saline 108 % of control | dose: 0.25 mg/kg/injection, schedule: Q04DX003 (ip), vehicle: water 115 % of control | dose: 0.5 mg/kg/injection, schedule: Q04DX003 (ip), vehicle: water 118 % of control | dose: 0.6 mg/kg/injection, schedule: Q04DX003 (ip), vehicle: saline 119 % of control | dose: 1.04 mg/kg/injection, schedule: Q01DX001 (ip), vehicle: water 122 % of control | dose: 37.5 micrograms/kg/injection, schedule: Q01DX009 (ip), vehicle: water 98 % of control | dose: 75.0 micrograms/kg/injection, schedule: Q01DX009 (ip), vehicle: water 107 % of control | dose: 130.0 micrograms/kg/injection, schedule: Q01DX009 (ip), vehicle: water 120 % of control | dose: 150.0 micrograms/kg/injection, schedule: Q01DX009 (ip), vehicle: water 111 % of control | dose: 300.0 micrograms/kg/injection, schedule: Q01DX009 (ip), vehicle: water 123 % of control

COc1cccc2c1C(=O)c1c(O)c3c(c(O)c1C2=O)C[C@@](O)(C(C)=O)C[C@@H]3OC1CC(N(C)C)C(O)C(C)O1 (stereo not given in full)
inactive: dose: 0.63 mg/kg/injection, schedule: Q01DX001 (ip), vehicle: water 100 % of control | dose: 1.25 mg/kg/injection, schedule: Q01DX001 (ip), vehicle: water 110 % of control and 112 % of control | dose: 2.5 mg/kg/injection, schedule: Q01DX001 (ip), vehicle: water 104 % of control | dose: 3.46 mg/kg/injection, schedule: Q04DX003 (ip), vehicle: water 98 % of control and 122 % of control | dose: 5.76 mg/kg/injection, schedule: Q04DX003 (ip), vehicle: water 106 % of control and 117 % of control | dose: 7.2 mg/kg/injection, schedule: Q01DX001 (ip), vehicle: water 104 % of control and 116 % of control | dose: 9.6 mg/kg/injection, schedule: Q04DX003 (ip), vehicle: water 102 % of control | dose: 12.0 mg/kg/injection, schedule: Q01DX001 (ip), vehicle: water 106 % of control and 121 % of control

Nc1nc(-c2ccccc2)c(Br)c(=O)[nH]1
active: dose: 400.0 mg/kg/injection, schedule: Q01DX009 (ip), vehicle: saline with Tween-80 150 % of control

CCC[CH2][Sn]1([CH2]CCC)[O]C2C(CO)OC(n3ccc(N)nc3=O)C2[O]1 (stereo not given)
inactive: dose: 0.78 mg/kg/injection, schedule: Q01DX009 (ip), vehicle: Klucel (hydroxypropylcellulose) (HPC) 99 % of control | dose: 1.56 mg/kg/injection, schedule: Q01DX009 (ip), vehicle: Klucel (hydroxypropylcellulose) (HPC) 123 % of control | dose: 3.12 mg/kg/injection, schedule: Q01DX009 (ip), vehicle: Klucel (hydroxypropylcellulose) (HPC) 116 % of control | dose: 6.25 mg/kg/injection, schedule: Q01DX009 (ip), vehicle: Klucel (hydroxypropylcellulose) (HPC) 104 % of control and 124 % of control

N/C=N/O
inactive: [1] 104 % of control | [2] 111 % of control | dose: 100.0 mg/kg/injection, schedule: Q01DX009 (ip), vehicle: saline 109 % of control | dose: 200.0 mg/kg/injection, schedule: Q01DX009 (ip), vehicle: saline 117 % of control

CC(=O)Nc1cc2c(cc1[N+](=O)[O-])-c1ccccc1C2O (stereo not given)
inactive: dose: 50.0 mg/kg/injection, schedule: Q04DX003 (ip), vehicle: saline with Tween-80 105 % of control | dose: 100.0 mg/kg/injection, schedule: Q04DX003 (ip), vehicle: saline with Tween-80 110 % of control | dose: 200.0 mg/kg/injection, schedule: Q04DX003 (ip), vehicle: saline with Tween-80 105 % of control

COc1ccc2cc1Oc1ccc(cc1)C[C@H]1c3cc(c(OC)cc3CCN1C)Oc1c(OC)c(OC)cc3c1[C@H](C2)N(C)CC3
inactive: dose: 12.5 mg/kg/injection, schedule: Q01DX009 (ip), vehicle: other 109 % of control | dose: 12.5 mg/kg/injection, schedule: Q01DX009 (ip), vehicle: saline with Tween-80 106 % of control and 108 % of control | dose: 12.5 mg/kg/injection, schedule: Q01DX009 (ip), vehicle: saline 97 % of control | dose: 12.5 mg/kg/injection, schedule: Q04DX003 (ip), vehicle: saline 94 % of control | dose: 25.0 mg/kg/injection, schedule: Q01DX009 (ip), vehicle: other 106 % of control | dose: 25.0 mg/kg/injection, schedule: Q01DX009 (ip), vehicle: saline with Tween-80 106 % of control and 115 % of control | [1] 100 % of control | dose: 25.0 mg/kg/injection, schedule: Q04DX003 (ip), vehicle: saline 108 % of control | dose: 50.0 mg/kg/injection, schedule: Q01DX009 (ip), vehicle: other 102 % of control | dose: 50.0 mg/kg/injection, schedule: Q01DX009 (ip), vehicle: saline with Tween-80 94 % of control and 113 % of control | [2] 105 % of control | dose: 50.0 mg/kg/injection, schedule: Q04DX003 (ip), vehicle: saline 97 % of control | dose: 100.0 mg/kg/injection, schedule: Q01DX009 (ip), vehicle: saline with Tween-80 89 % of control and 101 % of control and 109 % of control | dose: 100.0 mg/kg/injection, schedule: Q04DX003 (ip), vehicle: saline 100 % of control
